Target: T1, 1-phosphatidylinositol 3-phosphate 5-kinase [S696N,L932S,Q995L,T998S,S1033A,Q1183K] (Homo sapiens, UniProt Q9Y2I7, L932S/Q1183K/Q995L/S1033A/S696N/T998S)
T1 construct: gene PIKFYVE
Experiment: PIKfyve Biochemical Assay
Description: The biochemical PIKfyve inhibition assays were run by Carna Biosciences according to proprietary methodology based on the Promega ADP-Glo™ Kinase assay. […] GST-PIKFYVE was purified by using glutathione sepharose chromatography and used in an ADP-Glo™ Kinase assay (Promega). Reactions were set up by adding the test compound solution, substrate solution, ATP solution and kinase solution, each at 4× final concentrations. Reactions were prepared with assay buffer (50 mM MOPS, 1 mM DTT, pH7.2), mixed, and incubated in black 384 well polystyrene plates for 1 hour at room temperature. ADP-Glo™ reagent was then added for 40 minutes, followed by kinase detection reagent for an additional 40 minutes. The kinase activity was evaluated by detecting relative light units on a luminescence plate reader. Samples were run in duplicate from 10 μM to 3 nM. […] IC50 values were calculated from concentration vs % inhibition curves by fitting to a four-parameter logistic curve.

T1 sequence (Q9Y2I7 2-2098 S696N/L932S/Q995L/T998S/S1033A/Q1183K limits assumed): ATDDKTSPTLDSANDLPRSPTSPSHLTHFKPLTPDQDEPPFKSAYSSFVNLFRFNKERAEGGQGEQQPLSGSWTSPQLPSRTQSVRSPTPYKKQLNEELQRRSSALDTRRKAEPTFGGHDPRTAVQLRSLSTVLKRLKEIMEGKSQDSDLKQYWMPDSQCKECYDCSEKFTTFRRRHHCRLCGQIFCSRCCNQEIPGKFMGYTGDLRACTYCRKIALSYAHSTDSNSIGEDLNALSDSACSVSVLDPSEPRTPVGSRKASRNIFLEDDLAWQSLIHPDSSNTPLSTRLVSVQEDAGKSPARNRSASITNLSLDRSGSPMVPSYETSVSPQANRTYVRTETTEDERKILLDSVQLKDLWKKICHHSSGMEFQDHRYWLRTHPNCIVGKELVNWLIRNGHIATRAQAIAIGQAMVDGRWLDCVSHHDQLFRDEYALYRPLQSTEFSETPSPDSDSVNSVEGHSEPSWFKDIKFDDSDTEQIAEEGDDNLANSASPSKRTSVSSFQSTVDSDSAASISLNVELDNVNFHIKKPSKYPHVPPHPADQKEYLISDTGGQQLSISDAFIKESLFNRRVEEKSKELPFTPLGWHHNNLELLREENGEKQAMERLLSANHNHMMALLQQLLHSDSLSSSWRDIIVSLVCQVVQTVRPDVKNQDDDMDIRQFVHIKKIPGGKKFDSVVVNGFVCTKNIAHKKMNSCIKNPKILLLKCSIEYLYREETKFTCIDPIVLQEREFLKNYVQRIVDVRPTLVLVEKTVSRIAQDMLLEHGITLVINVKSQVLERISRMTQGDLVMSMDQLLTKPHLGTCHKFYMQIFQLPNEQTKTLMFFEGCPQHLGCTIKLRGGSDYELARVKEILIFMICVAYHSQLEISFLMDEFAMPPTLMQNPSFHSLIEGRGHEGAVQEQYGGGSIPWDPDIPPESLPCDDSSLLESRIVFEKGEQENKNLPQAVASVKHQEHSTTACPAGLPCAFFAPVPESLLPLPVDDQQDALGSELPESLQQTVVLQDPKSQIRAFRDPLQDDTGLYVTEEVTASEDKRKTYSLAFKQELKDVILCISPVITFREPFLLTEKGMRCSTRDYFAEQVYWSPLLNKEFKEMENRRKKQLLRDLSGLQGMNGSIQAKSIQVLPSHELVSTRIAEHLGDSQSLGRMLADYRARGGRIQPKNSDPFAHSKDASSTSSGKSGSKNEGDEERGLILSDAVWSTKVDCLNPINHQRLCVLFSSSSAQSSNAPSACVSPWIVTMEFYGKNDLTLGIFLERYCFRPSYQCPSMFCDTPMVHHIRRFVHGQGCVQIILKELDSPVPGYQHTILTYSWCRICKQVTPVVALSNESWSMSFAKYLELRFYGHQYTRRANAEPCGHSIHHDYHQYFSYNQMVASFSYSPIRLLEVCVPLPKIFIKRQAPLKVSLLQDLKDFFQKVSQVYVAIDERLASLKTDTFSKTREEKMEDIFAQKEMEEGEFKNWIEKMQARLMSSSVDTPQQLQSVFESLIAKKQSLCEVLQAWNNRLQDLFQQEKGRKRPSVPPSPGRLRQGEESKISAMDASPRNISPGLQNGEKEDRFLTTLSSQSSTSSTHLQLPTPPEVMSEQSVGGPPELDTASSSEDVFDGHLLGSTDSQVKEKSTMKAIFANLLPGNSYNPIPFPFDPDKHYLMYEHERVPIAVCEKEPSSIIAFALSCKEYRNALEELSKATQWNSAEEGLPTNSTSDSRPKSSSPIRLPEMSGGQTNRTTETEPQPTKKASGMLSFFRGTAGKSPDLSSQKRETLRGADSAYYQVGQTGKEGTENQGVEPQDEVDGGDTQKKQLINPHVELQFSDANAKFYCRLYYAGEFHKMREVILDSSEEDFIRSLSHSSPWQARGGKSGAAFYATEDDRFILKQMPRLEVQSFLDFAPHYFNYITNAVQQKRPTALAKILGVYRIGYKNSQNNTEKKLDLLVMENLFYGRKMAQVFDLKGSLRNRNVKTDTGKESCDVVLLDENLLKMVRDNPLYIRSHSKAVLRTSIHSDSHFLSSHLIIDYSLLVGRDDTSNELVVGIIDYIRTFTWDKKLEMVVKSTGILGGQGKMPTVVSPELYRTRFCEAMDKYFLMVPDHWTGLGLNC

c1ccc(-c2c[nH]c3c(-c4ccncc4)nc(N4CCOCC4)nc23)cc1 [US20250145642, Compound 135]
IC50: < 10 nM

Source: BindingDB's records for patent US20250145642 (Kineta, 2025)
